{"source": "patent US12005094B2", "about": "“Inhibitor of inflammatory conditions” (Compton Developments Ltd., priority 2009, dated 2024)", "origin": "cited, not measured here", "key": {"[1]": {"test_system": "EAE", "settings": "Clomipramine vs vehicle control, divergent from day 10"}, "[2]": {"test_system": "antigen-induced arthritis", "settings": "oral administration"}, "[3]": {"test_system": "lipoxygenase products"}, "[4]": {"test_system": "ear edema", "settings": "topical"}, "[5]": {"test_system": "skin edema and hyperplasia", "settings": "topical administration"}}}
{"smiles": "CN(C)CCCN1c2ccccc2CCc2ccc(Cl)cc21", "note": "[Clomipramine]", "values": [{"measurement": "onset of disease symptoms (average EAE scores)", "setting": "[1]", "value": "delayed"}]}
{"smiles": "C=C(C)[C@@H]1CC[C@]2(C)CC[C@]3(C)[C@H](CC[C@@H]4[C@@]5(C)CC[C@H](O)C(C)(C)[C@@H]5CC[C@]43C)[C@@H]12", "note": "[Lupeol, lupeol]", "values": [{"measurement": "reduction in paw swelling", "setting": "[2]", "value": 39, "unit": "%"}, {"measurement": "effect on lipoxygenase products", "setting": "[3]", "value": "no effect on lipoxygenase products"}, {"measurement": "PGE2", "setting": "[4]", "value": "significant reduction in PGE2"}, {"measurement": "ear edema", "setting": "[4]", "value": "suppressed ear edema"}, {"measurement": "nitrite release", "setting": "[4]", "value": "weaker inhibition of nitrite release"}, {"measurement": "skin edema and hyperplasia", "setting": "[5]", "value": "significantly inhibited skin edema and hyperplasia"}]}
